“And” between values parts separate entries of the source, which are not always exact repeats. Equal values may be shown once. Read-outs that look alike come from different tables or passages of the source.
Experiments:
[1] = for Average Cell Number (1 uM) / Cell Number (1 uM) / Normalized Cell Number (1 uM): compound at 1 uM; for Average Cell Number (1 uM) / Average Cell Number (5 uM): average of normalized cell number, n=3, relative to DMSO; for Cell Number (1 uM) / Normalized Cell Number (1 uM) / Cell Number (5 uM) / Normalized Cell Number (5 uM): single replicate; for Cell Number (1 uM) / Cell Number (5 uM): raw cell count; for Normalized Cell Number (1 uM) / Normalized Cell Number (5 uM): relative to negative control DMSO; for Average Cell Number (5 uM) / Cell Number (5 uM) / Normalized Cell Number (5 uM): compound at 5 uM
SARS-CoV-2 = assay: microbe, parasite or virus in culture; assay type: cell-based; conditions: for activity at 1 µM: Severe acute respiratory syndrome coronavirus 2, 1 uM, read-out: Normalized Infection (1 uM); for activity at 1 µM / activity at 5 µM: single replicate, relative to negative control DMSO; for HIT: overall, 1 or 5 uM; for activity at 5 µM: Severe acute respiratory syndrome coronavirus 2, 5 uM, read-out: Normalized Infection (5 uM)
[2] = 1 uM, average log2FC infection (n=3) relative to DMSO
[3] = 5 uM, average log2FC infection (n=3) relative to DMSO

Compound | Toxic (1 uM) [1] | Toxic (5 uM) [1] | Average Cell Number (1 uM) [1] | Cell Number (1 uM) [1] | Normalized Cell Number (1 uM) [1] | Average Cell Number (5 uM) [1] | Cell Number (5 uM) [1] | Normalized Cell Number (5 uM) [1] | HIT (2 Std, 1 uM) (SARS-CoV-2; 1 uM) | Average Infection (1 uM) (SARS-CoV-2; [2]) | Average Infection (5 uM) (SARS-CoV-2; [3]) | activity at 1 µM (SARS-CoV-2) | HIT (SARS-CoV-2) | activity at 5 µM (SARS-CoV-2) | Average Infection (1 uM) (SARS-CoV-2) | Average Infection (5 uM) (SARS-CoV-2) | HIT (2 Stdv, 5 uM) (SARS-CoV-2; 5 uM)
CN(C)[C@@H]1C(O)=C(C(N)=O)C(=O)[C@@]2(O)C(O)=C3C(=O)c4c(O)cccc4[C@@](C)(O)[C@H]3[C@H](O)[C@@H]12 [Oxytetracycline, oxytetracycline] | 0 (non-toxic (Normalized Cell number>0.65) | 0 (non-toxic (Normalized Cell number>0.65) | 0.8352 | 5031 and 4848 and 4803 | 0.8585 and 0.8273 and 0.8196 | 0.976 | 6014 and 5768 and 5570 | 1.015 and 0.9733 and 0.9399 | HIT | −0.4729 | −0.1642 | 83.8% | Yes |  |  |  | 
N=C(N)c1ccc2nc(-c3cc(CC(=O)N[C@@H](CC(=O)O)C(=O)O)cc(-c4cc(S(N)(=O)=O)ccc4O)c3O)[nH]c2c1 [PCl 27483, pci-27483] | 0 (non-toxic (Normalized Cell number>0.65) | 0 (non-toxic (Normalized Cell number>0.65) | 0.775 | 4643 and 4781 and 4200 | 0.7923 and 0.8159 and 0.7167 | 0.9439 | 5909 and 5702 and 5170 | 0.9971 and 0.9622 and 0.8724 | HIT | −0.6789 | 0.006187 | 58% | Yes | 104% |  |  | 
CC(C)OC(=O)[C@H](C)N[P@](=O)(OC[C@H]1O[C@@H](n2ccc(=O)[nH]c2=O)[C@](C)(F)[C@@H]1O)Oc1ccccc1 [PSI-7977, Sofosbuvir] | 0 (non-toxic (Normalized Cell number>0.65) | 0 (non-toxic (Normalized Cell number>0.65) | 1.039 | 6209 and 5916 and 6135 | 1.06 and 1.01 and 1.047 | 0.991 | 5941 and 5681 and 5997 | 1.002 and 0.9586 and 1.012 |  |  |  | 80.9% | Yes | 70.5% | −0.27 | −0.4905 | HIT
CCC[C@H](N[C@@H](C)C(=O)N1[C@H](C(=O)O)C[C@@H]2CCCC[C@@H]21)C(=O)OCC [Perindopril, perindopril] | 0 (non-toxic (Normalized Cell number>0.65) | 0 (non-toxic (Normalized Cell number>0.65) | 0.7365 | 4330 and 4259 and 4358 | 0.7389 and 0.7268 and 0.7437 | 0.9903 | 5734 and 6091 and 5782 | 0.9676 and 1.028 and 0.9757 | HIT | −0.8775 | −0.1846 | 62.3% | Yes | 96.4% |  |  | 
CCCCC[C@H](O)/C=C/[C@@H]1[C@@H](C/C=C\CCCC(=O)O)[C@@H](O)C[C@H]1O [Prostagladin F2a, dinoprost] |  |  | 0.8973 |  | 0.8613 and 0.9247 and 0.906 | 0.9858 |  | 0.988 and 0.9765 and 0.9929 | HIT | −0.6806 | −0.2282 | 58.9% | Yes | 83.1% |  |  | 
Cc1cncc(CN2CCC(=C3c4ccc(Cl)cc4CCc4cccnc43)CC2)c1 [Rupatadine, rupatadine] | 0 (non-toxic (Normalized Cell number>0.65) | 0 (non-toxic (Normalized Cell number>0.65) | 0.795 | 4468 and 4936 and 4572 | 0.7625 and 0.8423 and 0.7802 | 0.9184 | 5730 and 5462 and 5136 | 0.9669 and 0.9217 and 0.8667 | HIT |  |  | 51.5% | Yes | 88.1% | −0.7916 | −0.09608 | 
C[C@@H]1CN(Cc2ccc(F)cc2)[C@@H](C)CN1C(=O)c1cc2c(C(=O)C(=O)N(C)C)cn(C)c2cc1Cl [SCIO 469, talmapimod] | 0 (non-toxic (Normalized Cell number>0.65) | 0 (non-toxic (Normalized Cell number>0.65) | 0.7439 | 3987 and 4564 and 4526 | 0.6804 and 0.7788 and 0.7724 | 0.95 | 5672 and 5345 and 5872 | 0.9571 and 0.9019 and 0.9909 | HIT | −1.039 | −0.8454 | 47.9% | Yes | 57.5% |  |  | HIT
COc1nc2ccc(Br)cc2cc1[C@@H](c1ccccc1)[C@@](O)(CCN(C)C)c1cccc2ccccc12 [TMC207, bedaquiline] |  | 0 (non-toxic (Normalized Cell number>0.65) | 0.6048 | 3465 and 3507 and 3661 | 0.5913 and 0.5985 and 0.6247 | 0.8191 | 5108 and 4528 and 4927 | 0.8619 and 0.7641 and 0.8314 | HIT | −0.3556 | −0.559 | 72.7% | Yes | 65.9% |  |  | HIT
CC(C(=O)O)c1ccc(C(=O)c2ccccc2)s1 (stereo not shown) [Tiaprofenic Acid, tiaprofenic acid] | 0 (non-toxic (Normalized Cell number>0.65) | 0 (non-toxic (Normalized Cell number>0.65) | 0.8638 | 5511 and 5420 and 4255 | 0.9404 and 0.9249 and 0.7261 | 0.9679 | 6146 and 5679 and 5383 | 1.037 and 0.9583 and 0.9083 | HIT | −0.4462 | −0.06461 | 71.2% | Yes |  |  |  | 
FC(F)(F)c1cccc(C2=CCN(CCc3ccc4ccccc4c3)CC2)c1 [Xaliproden, xaliproden] | 0 (non-toxic (Normalized Cell number>0.65) | 0 (non-toxic (Normalized Cell number>0.65) | 0.7188 | 4440 and 4549 and 3647 | 0.7577 and 0.7763 and 0.6224 | 0.9135 | 5577 and 5737 and 4927 | 0.9411 and 0.9681 and 0.8314 | HIT | −0.6769 | −0.143 |  | Yes |  |  |  | 

— patent US20240082228A1, “SARS-COV-2 THERAPEUTICS” (priority 2021, published 2024)
